The source of these data is the NIST ThermoML archive (doi:10.1021/acs.jced.6b00429).

The conditions of the data set: Liquid, Ebulliometric method (Recirculating still).

SMILES strings stand for the structures. Numbers after ± are expanded uncertainties.

Broadly, the vapor or sublimation pressure is the pressure of vapour in equilibrium with the condensed phase. Take `OCC(F)(F)C(F)(F)C(F)(F)C(F)F` [2,2,3,3,4,4,5,5-octafluoro-1-pentanol]: the “vapor or sublimation pressure” value is, setting by setting: (394.71 K) 53.3 ± 0.5 kPa; (400.93 K) 66.7 ± 0.5 kPa; (406.16 K) 80 ± 0.6 kPa.

On to `OCC(F)(F)C(F)F` [2,2,3,3-tetrafluoro-1-propanol], for which the “vapor or sublimation pressure” value was 53.3 ± 0.5 kPa (365.01 K), 66.7 ± 0.5 kPa (370.79 K) and 80 ± 0.6 kPa (375.66 K).
